The structures appear in SMILES notation. A value given as a limit tells only on which side of the number the result lay.

Data on 42 compounds can be found in patent publication US20240391931A1 (Bristol-Myers Squibb Company, priority 2021, published 2024).

HER2YVMA, sequence (P04626 with tags, fused parts or gaps INS775YVMA): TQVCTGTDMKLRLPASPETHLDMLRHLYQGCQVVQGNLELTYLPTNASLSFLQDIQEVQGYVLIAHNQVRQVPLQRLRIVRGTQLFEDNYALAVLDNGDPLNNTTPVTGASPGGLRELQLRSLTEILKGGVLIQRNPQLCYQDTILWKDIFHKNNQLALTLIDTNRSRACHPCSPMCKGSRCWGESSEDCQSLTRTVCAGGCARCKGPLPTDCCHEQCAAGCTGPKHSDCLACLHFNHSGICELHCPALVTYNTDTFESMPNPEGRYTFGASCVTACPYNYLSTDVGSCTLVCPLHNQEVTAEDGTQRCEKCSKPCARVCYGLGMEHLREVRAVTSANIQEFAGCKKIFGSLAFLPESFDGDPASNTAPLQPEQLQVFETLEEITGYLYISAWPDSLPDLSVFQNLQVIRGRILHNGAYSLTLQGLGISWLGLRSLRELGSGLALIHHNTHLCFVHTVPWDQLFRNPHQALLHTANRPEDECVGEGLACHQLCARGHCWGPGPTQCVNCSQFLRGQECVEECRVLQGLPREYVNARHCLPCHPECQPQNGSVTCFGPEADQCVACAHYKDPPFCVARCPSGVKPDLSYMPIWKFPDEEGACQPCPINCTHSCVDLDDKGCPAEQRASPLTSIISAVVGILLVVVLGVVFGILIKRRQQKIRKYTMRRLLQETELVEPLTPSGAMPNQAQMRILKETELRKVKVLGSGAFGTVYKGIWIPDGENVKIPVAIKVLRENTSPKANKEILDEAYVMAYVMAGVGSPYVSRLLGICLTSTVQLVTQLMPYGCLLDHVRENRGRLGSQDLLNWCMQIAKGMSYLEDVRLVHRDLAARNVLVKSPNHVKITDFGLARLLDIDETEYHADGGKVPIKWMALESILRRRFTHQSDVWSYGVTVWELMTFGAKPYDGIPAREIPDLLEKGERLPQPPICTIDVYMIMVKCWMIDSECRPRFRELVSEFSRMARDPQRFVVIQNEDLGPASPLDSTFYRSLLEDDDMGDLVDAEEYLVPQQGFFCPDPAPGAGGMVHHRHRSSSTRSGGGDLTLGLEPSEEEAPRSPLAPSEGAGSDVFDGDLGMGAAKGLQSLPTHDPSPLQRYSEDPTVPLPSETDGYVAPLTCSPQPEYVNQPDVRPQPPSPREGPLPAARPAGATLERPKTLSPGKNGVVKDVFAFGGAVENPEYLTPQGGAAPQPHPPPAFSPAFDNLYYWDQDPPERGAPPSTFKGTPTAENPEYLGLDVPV

The target of the assay is HER2YVMA (Homo sapiens, UniProt P04626, INS775YVMA). The assay can be described thus: HER2 signaling (pHER2) in Hek293-HER2YVMA cells. The settings on record: 1.5 hr compound, 1% FBS, read-out: HEKYVMA pHER2 EC50. Also on record: expressed in transfected cells; host or cells: HEK293 (pool), Ba/F3 (clones), BEAS2B (clones); lentiviral vector pCDH-CMV-MCS-EF1-Neo. Format: cell-based. The method in brief:
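Lentivirally transduced HER2YVMA lines (HEK293 pool; BEAS2B clone) treated 1.5 h at 37 °C in 1% FBS medium with compound at 0.0005–1.1 μM. Lysates read by MSD immunoassay for pHER2 (Tyr1248) normalized to total HER2, as % DMSO control; EC50 from variable-slope sigmoidal fit.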
`Cc1ccc(Oc2ccc(Nc3ncnc4sc5c(c34)CCN(C(=O)/C=C/CNC34CCC(C#N)(CC3)CC4)C5)cc2C)cn1` [Compound 72]: the EC50 (commonly the midpoint of the concentration-response curve) was under 100 nM.

Turning to `Cc1ccc(Oc2ccc(Nc3ncnc4sc5c(c34)CCN(C(=O)/C=C/CN3CCC(n4ccnc4)CC3)C5)cc2C)cn1` [Compound 62], the 50% effective concentration (EC50) is 100 to 350 nM.

In the case of `Cc1cc(Nc2ncnc3sc4c(c23)CCN(C(=O)/C=C/CN2CC3C(CO)C3C2)C4)ccc1Oc1ccc2ncnn2c1` (stereo not drawn) [Compound 81], the EC50 is under 100 nM.

`CCOC/C=C/C(=O)N1CCc2c(sc3ncnc(Nc4ccc(Oc5ccc(C)nc5)c(C)c4)c23)C1` [Compound 96, (E)-4-ethoxy-1-(4-((3-methyl-4-((6-methylpyridin-3-yl)oxy)phenyl)amino)-5,8-dihydropyrido[4′,3′:4,5]thieno[2,3-d]pyrimidin-7(6H)-yl)but-2-en-1-one]: the EC50 is under 100 nM.

As to `Cc1ncc(Oc2ccc(Nc3ncnc4sc5c(c34)CCN(C(=O)/C=C/CN(C)C)C5)cc2C)cn1` [Compound 21, (E)-4-(dimethylamino)-1-(4-((3-methyl-4-((2-methylpyrimidin-5-yl)oxy)phenyl)amino)-5,8-dihydropyrido[4′,3′:4,5]thieno[2,3-d]pyrimidin-7(6H)-yl)but-2-en-1-one], the EC50 is under 100 nM.

In the case of `Cc1ccc(Oc2ccc(Nc3ncnc4sc5c(c34)CCN(C(=O)/C=C/CN3CCn4cc(C(F)(F)F)nc4C3)C5)cc2C)cn1` [Compound 61], the EC50 fell in the range of 350 to 1000 nM.

On to `CON(C)C/C=C/C(=O)N1CCc2c(sc3ncnc(Nc4ccc(Oc5ccc(C)nc5)c(C)c4)c23)C1` [Compound 56], for which the EC50 fell in the range of 350 to 1000 nM.

`Cc1ccc(Oc2ccc(Nc3ncnc4sc5c(c34)CCN(C(=O)/C=C/CN3CCC(O)C3)C5)cc2C)cn1` (stereo not drawn) [Compound 74]: the EC50 was under 100 nM.

As to `Cc1ccc(Oc2ccc(Nc3ncnc4sc5c(c34)CCN(C(=O)/C=C/CN3CCN4C(=O)CCC4C3)C5)cc2C)cn1` (stereo not drawn) [Compound 58], the EC50 lay in the range of 350 to 1000 nM.

For `Cc1ccc(Oc2ccc(Nc3ncnc4sc5c(c34)CCN(C(=O)/C=C/CN[C@H]3CC[C@H](OC(F)F)CC3)C5)cc2C)cn1` [Compound 69], the half-maximal effective concentration (EC50) is under 100 nM.

Regarding `Cc1ccc(Oc2ccc(Nc3ncnc4sc5c(c34)CCN(C(=O)/C=C/CNCc3ccsc3)C5)cc2C)cn1` [Compound 52], the EC50 was under 100 nM.

Consider `Cc1ccc(Oc2ccc(Nc3ncnc4sc5c(c34)CCN(C(=O)/C=C/CNC3CC3)C5)cc2C)cn1` [Compound 40], for which the EC50 is under 100 nM.

As for `Cc1ccc(Oc2ccc(Nc3ncnc4sc5c(c34)CCN(C(=O)/C=C/CN3CC=CCC3)C5)cc2C)cn1` [Compound 55], the EC50 was under 100 nM.

As to `Cc1ccc(Oc2ccc(Nc3ncnc4sc5c(c34)CCN(C(=O)/C=C/CN3CC(O)C3)C5)cc2C)cn1` [Compound 53], the EC50 was in the range of 100 to 350 nM.

For the compound `Cc1ccc(Oc2ccc(Nc3ncnc4sc5c(c34)CCN(C(=O)/C=C/CNCCO)C5)cc2C)cn1` [Compound 65], the EC50 was under 100 nM.

As to `COc1ccc(Oc2ccc(Nc3ncnc4sc5c(c34)CCN(C(=O)/C=C/CN(C)C)C5)cc2C)cn1` [Compound 95, (E)-4-(Dimethylamino)-1-(4-((4-((6-methoxypyridin-3-yl)oxy)-3-methylphenyl)amino)-5,6-dihydropyrido[4′,3′:4,5]thieno[2,3-d]pyrimidin-7(8H)-yl)but-2-en-1-one], the EC50 is under 100 nM.

Regarding `Cc1cc(Nc2ncnc3sc4c(c23)CCN(C(=O)/C=C/CN(C)C)C4)ccc1Oc1ccc2cn[nH]c2c1` [Compound 23, (E)-1-(4-((4-((1H-indazol-6-yl)oxy)-3-methylphenyl)amino)-5,8-dihydropyrido[4′,3′:4,5]thieno[2,3-d]pyrimidin-7(6H)-yl)-4-(dimethylamino)but-2-en-1-one], the EC50 is under 100 nM.

As for `Cc1cc(Nc2ncnc3sc4c(c23)CCN(C(=O)/C=C/CN2CC(C)(C)OC(C)(C)C2)C4)ccc1Oc1ccc2ncnn2c1` [Compound 84], the EC50 fell in the range of 100 to 350 nM.

On to `Cc1cc(Nc2ncnc3sc4c(c23)CCN(C(=O)/C=C/CN(C)C)C4)ccc1Oc1ccc2ncnn2c1` [Compound 3, (E)-1-(4-((4-([1,2,4]triazolo[1,5-a]pyridin-6-yloxy)-3-methylphenyl)amino)-5,8-dihydropyrido[4′,3′:4,5]thieno[2,3-d]pyrimidin-7(6H)-yl)-4-(dimethylamino)but-2-en-1-one], for which the EC50 is 100 to 350 nM.

In the case of `Cc1ccc(Oc2ccc(Nc3ncnc4sc5c(c34)CN(C(=O)/C=C/CN(C)C)C5)cc2C)cn1` [Compound 99, (E)-4-(dimethylamino)-1-(4-((3-methyl-4-((6-methylpyridin-3-yl)oxy)phenyl)amino)-5,7-dihydro-6H-pyrrolo[3′,4′:4,5]thieno[2,3-d]pyrimidin-6-yl)but-2-en-1-one], the EC50 is under 100 nM.

Regarding `Cc1ccc(Oc2ccc(Nc3ncnc4sc5c(c34)CCN(C(=O)/C=C/CN[C@H]3CCC[C@H](O)C3)C5)cc2C)cn1` [Compound 73], the EC50 was under 100 nM.

In the case of `CNC(=O)CNC/C=C/C(=O)N1CCc2c(sc3ncnc(Nc4ccc(Oc5ccc(C)nc5)c(C)c4)c23)C1` [Compound 39], the 50% effective concentration (EC50) was 100 to 350 nM.

Consider `CCN1CCN(C/C=C/C(=O)N2CCc3c(sc4ncnc(Nc5ccc(Oc6ccc(C)nc6)c(C)c5)c34)C2)CC1` [Compound 46], for which the EC50 was under 100 nM.

For the compound `Cc1cc(Nc2ncnc3sc4c(c23)CCN(C(=O)/C=C/CN(C)C)C4)ccc1Oc1cccc(B(O)O)c1` [Compound 64, (E)-(3-(4-((7-(4-(dimethylamino)but-2-enoyl)-5,6,7,8-tetrahydropyrido[4′,3′:4,5]thieno[2,3-d]pyrimidin-4-yl)amino)-2-methylphenoxy)phenyl)boronic acid], the EC50 was under 100 nM.

As for `Cc1cc(Nc2ncnc3sc4c(c23)CCN(C(=O)/C=C/CN2CC(C)OC(C)C2C)C4)ccc1Oc1ccc2ncnn2c1` (stereo not drawn) [Compound 83], the EC50 was under 100 nM.

For the compound `C=CC(=O)N1CCc2[nH]c3ncnc(Nc4ccc(Oc5ccc(C)nc5)c(C)c4)c3c2C1` [Compound 94, 1-(4-((3-methyl-4-((6-methylpyridin-3-yl)oxy)phenyl)amino)-7,8-dihydro-5H-pyrido[3′,4′:4,5]pyrrolo[2,3-d]pyrimidin-6(9H)-yl)prop-2-en-1-one], the EC50 was under 100 nM.

As to `Cc1cc(Nc2ncnc3sc4c(c23)CCN(C(=O)/C=C/CN(C)C)C4)ccc1Oc1ccc2nonc2c1` [Compound 104, (E)-1-(4-((4-(Benzo[c][1,2,5]oxadiazol-5-yloxy)-3-methylphenyl)amino)-5,6-dihydropyrido[4′,3′:4,5]thieno[2,3-d]pyrimidin-7(8H)-yl)-4-(dimethylamino)but-2-en-1-one], the EC50 is under 100 nM.

For the compound `O=C(/C=C/CN1CC2CC1CO2)N1CCc2c(sc3ncnc(Nc4ccc(Oc5ccc6ncnn6c5)c(Cl)c4)c23)C1` (stereo not drawn) [Compound 87], the EC50 is under 100 nM.

Take `Cc1ccc(Oc2ccc(Nc3ncnc4sc5c(c34)CCN(C(=O)/C=C/CNCCS(C)(=O)=O)C5)cc2C)cn1` [Compound 45]: the EC50 was under 100 nM.

Consider `O=C(/C=C/CN1CC2CCC(C2)C1)N1CCc2c(sc3ncnc(Nc4ccc(Oc5ccc6ncnn6c5)c(Cl)c4)c23)C1` [Compound 88], for which the EC50 is under 100 nM.

`Cc1ccc(Oc2ccc(Nc3ncnc4sc5c(c34)CCN(C(=O)/C=C/CN3CCC4(CCOC4)C3)C5)cc2C)cn1` (stereo not drawn) [Compound 67]: the EC50 was under 100 nM.

As to `Cc1ccc(Oc2ccc(Nc3ncnc4sc5c(c34)CCN(C(=O)/C=C/CN3C4CCC3CC4)C5)cc2C)cn1` [Compound 44], the EC50 was under 100 nM.

Turning to `C=CC(=O)N1CCc2c(sc3ncnc(Nc4ccc(Oc5ccc6ncnn6c5)c(Cl)c4)c23)C1` [Compound 4, 1-(4-((4-([1,2,4]triazolo[1,5-a]pyridin-6-yloxy)-3-chlorophenyl)amino)-5,8-dihydropyrido[4′,3′:4,5]thieno[2,3-d]pyrimidin-7(6H)-yl)prop-2-en-1-one], the EC50 is under 100 nM.

Turning to `Cc1cc(Nc2ncnc3sc4c(c23)CCN(C(=O)/C=C/CN(C)C)C4)ccc1Oc1ccc2[nH]ncc2c1` [Compound 22, (E)-1-(4-((4-((1H-indazol-5-yl)oxy)-3-methylphenyl)amino)-5,8-dihydropyrido[4′,3′:4,5]thieno[2,3-d]pyrimidin-7(6H)-yl)-4-(dimethylamino)but-2-en-1-one], the EC50 was under 100 nM.

On to `Cc1ccc(Oc2ccc(Nc3ncnc4sc5c(c34)CCN(C(=O)/C=C/CN3CC4C(CO)C4C3)C5)cc2C)cn1` (stereo not drawn) [Compound 34], for which the EC50 was under 100 nM.

Take `Cc1cc(Nc2ncnc3sc4c(c23)CCN(C(=O)/C=C/CN2CC3CC(C3)C2)C4)ccc1Oc1ccc2ncnn2c1` [Compound 82]: the EC50 was under 100 nM.

On to `Cc1ccc(Oc2ccc(Nc3ncnc4sc5c(c34)C(C)CN(C(=O)/C=C/CN(C)C)C5)cc2C)cn1` (stereo not drawn) [Compound 98, (E)-4-(dimethylamino)-1-(5-methyl-4-((3-methyl-4-((6-methylpyridin-3-yl)oxy)phenyl)amino)-5,8-dihydropyrido[4′,3′:4,5]thieno[2,3-d]pyrimidin-7(6H)-yl)but-2-en-1-one], for which the EC50 was under 100 nM.

As to `Cc1ccc(Oc2ccc(Nc3ncnc4sc5c(c34)CCN(C(=O)/C=C/CN[C@H]3CC[C@H](OCC(F)(F)F)CC3)C5)cc2C)cn1` [Compound 70], the EC50 was under 100 nM.

As for `Cc1ccc(Oc2ccc(Nc3ncnc4sc5c(c34)CCN(C(=O)/C=C/CN3CC4CC4C3)C5)cc2C)cn1` (stereo not drawn) [Compound 76], the EC50 is under 100 nM.

On to `O=C(/C=C/CN1CC2C(CO)C2C1)N1CCc2c(sc3ncnc(Nc4ccc(Oc5ccc6ncnn6c5)c(Cl)c4)c23)C1` (stereo not drawn) [Compound 92], for which the EC50 was under 100 nM.

As for `Cc1ccc(Oc2ccc(Nc3ncnc4sc5c(c34)CCN(C(=O)/C=C/CN3CC4(C3)CS(=O)(=O)C4)C5)cc2C)cn1` [Compound 57], the concentration for a half-maximal effect (EC50) was under 100 nM.

For the compound `Cc1ccc(Oc2ccc(Nc3ncnc4sc5c(c34)CCN(C(=O)/C=C/CNC3COC3)C5)cc2C)cn1` [Compound 38], the 50% effective concentration (EC50) was under 100 nM.
